This note sets out measurements from the Biogen ADME set (Fang et al. 2023).

In brackets after ≈: the same amount, converted by molar mass.

The conditions of the data set: for aqueous solubility: pH 6.8.

Usually aqueous solubility stands for the dissolved amount per volume that the medium holds. Regarding `NS(=O)(=O)OC[C@@H]1C[C@@H](n2ccc3c(N[C@H]4CCc5ccccc54)ncnc32)C[C@@H]1O`, the MDR1-MDCK efflux ratio is 51.9; the intrinsic clearance, human liver microsomes is 40.9 mL/min/kg; the intrinsic clearance, rat liver microsomes came out at 680 mL/min/kg; the aqueous solubility worked out at 44.4 µg/mL (≈ 100 µM).

On to `CN(CCN1CCOC1=O)C(=O)c1cc2cc(Br)ccc2o1`, for which the MDR1-MDCK efflux ratio stood at 2.28; the intrinsic clearance, human liver microsomes turned out to be 13.2 mL/min/kg; the intrinsic clearance, rat liver microsomes came out at 107 mL/min/kg; the aqueous solubility is 50.9 µg/mL (≈ 139 µM).

For `O=C(Nc1ccc(CN2CCCCC2)cc1)c1ccnc2[nH]cnc12`, the MDR1-MDCK efflux ratio is 9.09; the fraction unbound, human plasma was found to be 0.586; the intrinsic clearance, human liver microsomes was found to be 7.73 mL/min/kg.

`Fc1ccc(-c2ccc3c(c2)[nH]c2ccncc23)cn1`: the MDR1-MDCK efflux ratio came to 0.469; the fraction unbound, human plasma turned out to be 0.045; the fraction unbound, rat plasma came out at 0.0437; the intrinsic clearance, human liver microsomes worked out at 16.8 mL/min/kg. This compound also gave an intrinsic clearance, rat liver microsomes of 162 mL/min/kg.

As for `N#Cc1cc2c(nc1SCc1cccnc1)CCCCCC2`, the MDR1-MDCK efflux ratio amounted to 0.913 and the aqueous solubility is 0.22 µg/mL (≈ 0.711 µM).

For the compound `CC(C)[C@H](NC(=O)c1c(F)cccc1F)C(=O)N1CCOCC1`, the MDR1-MDCK efflux ratio stood at 8.08; the intrinsic clearance, human liver microsomes is no more than 4.74 mL/min/kg; the intrinsic clearance, rat liver microsomes is no more than 10.7 mL/min/kg; the aqueous solubility is 50.7 µg/mL (≈ 155 µM).

For `Cc1nc(-c2ccncc2)cc(N2CCC(CO)CC2)n1`, the intrinsic clearance, human liver microsomes is no more than 4.74 mL/min/kg and the intrinsic clearance, rat liver microsomes turned out to be 36.9 mL/min/kg.

Consider `CCc1cc2c(N3CCN(Cc4nccn4C)CC3)ncnc2s1`, for which the aqueous solubility came to 66.8 µg/mL (≈ 195 µM).

On to `Nc1nncc(-c2ccccc2OC(F)F)n1`, for which the MDR1-MDCK efflux ratio is 0.709; the intrinsic clearance, human liver microsomes is no more than 4.74 mL/min/kg; the intrinsic clearance, rat liver microsomes is no more than 10.7 mL/min/kg; the aqueous solubility came out at 38.9 µg/mL (≈ 163 µM).

`NC(=O)Cn1ccc(-c2ccccc2)n1`: the MDR1-MDCK efflux ratio came out at 0.792; the intrinsic clearance, human liver microsomes was no more than 4.74 mL/min/kg; the intrinsic clearance, rat liver microsomes was no more than 10.7 mL/min/kg; the aqueous solubility came to 40.5 µg/mL (≈ 201 µM).

As to `COC(=O)CCCNC(=O)CN1CCC(C(=O)c2ccc(C)cc2C)CC1`, the MDR1-MDCK efflux ratio worked out at 3.29; the intrinsic clearance, human liver microsomes worked out at 645 mL/min/kg; the intrinsic clearance, rat liver microsomes stood at 1910 mL/min/kg.

On to `COc1cccc(-c2ccc(C(=O)N(C)Cc3c(C)nn(C(C)C)c3C)o2)c1`, for which the MDR1-MDCK efflux ratio was determined as 1.47; the intrinsic clearance, human liver microsomes came to 264 mL/min/kg; the intrinsic clearance, rat liver microsomes was 1960 mL/min/kg; the aqueous solubility came to 47 µg/mL (≈ 123 µM).

The compound `COc1ccc2c(c1)CC[C@@H]1[C@@H]2CC[C@]2(C)[C@@H](NCCCCCCN3C(=O)C=CC3=O)CC[C@@H]12` had an intrinsic clearance, human liver microsomes of 6.09 mL/min/kg and an intrinsic clearance, rat liver microsomes of 38.7 mL/min/kg.

As to `COc1ccc(CN2CC(c3ccncc3)C2)cc1Cn1cccn1`, the MDR1-MDCK efflux ratio was determined as 6.36; the intrinsic clearance, human liver microsomes was found to be 10.8 mL/min/kg; the intrinsic clearance, rat liver microsomes turned out to be 397 mL/min/kg.

Take `CNCc1cc(NC)nc(C2CCCN2C(=O)COc2ccccc2OC)n1` (stereo not drawn): the MDR1-MDCK efflux ratio turned out to be 1.2; the intrinsic clearance, human liver microsomes is no more than 4.74 mL/min/kg; the intrinsic clearance, rat liver microsomes turned out to be 45.1 mL/min/kg.

`Cc1ccc(NC(=O)CN2C(=O)CN(C)C2=O)cc1C`: the MDR1-MDCK efflux ratio was found to be 3.8; the intrinsic clearance, human liver microsomes was no more than 4.74 mL/min/kg; the intrinsic clearance, rat liver microsomes was 62.9 mL/min/kg.

Turning to `c1ccc2c(c1)CCN(Cc1nnc3n1CCC3)C2`, the MDR1-MDCK efflux ratio is 6.91; the intrinsic clearance, human liver microsomes was no more than 4.74 mL/min/kg; the intrinsic clearance, rat liver microsomes was determined as 34.5 mL/min/kg; the aqueous solubility was determined as 35.3 µg/mL (≈ 139 µM).

Consider `Cn1c(CNC(=O)Cc2cccc3ccccc23)nc2ccccc21`, for which the MDR1-MDCK efflux ratio turned out to be 2.33; the intrinsic clearance, human liver microsomes turned out to be 187 mL/min/kg; the intrinsic clearance, rat liver microsomes was determined as 1590 mL/min/kg; the aqueous solubility was 10.1 µg/mL (≈ 30.5 µM).

Turning to `Cc1ccc(-c2cnc3ccccc3n2)cc1N`, the intrinsic clearance, human liver microsomes worked out at 256 mL/min/kg and the intrinsic clearance, rat liver microsomes stood at 203 mL/min/kg.

As for `Cn1c(CNc2ccc(C(=N)N)cc2)nc2cc(C(=O)N(CCC(=O)O)c3ccccn3)ccc21`, the MDR1-MDCK efflux ratio was 0.503; the intrinsic clearance, human liver microsomes is no more than 4.74 mL/min/kg; the intrinsic clearance, rat liver microsomes is no more than 10.7 mL/min/kg; the aqueous solubility worked out at 4.91 µg/mL (≈ 10.4 µM).

With `COc1ccccc1-c1cc(NC(=O)c2cccc(N3CCNC3=O)c2)[nH]n1`, the MDR1-MDCK efflux ratio worked out at 60.4; the fraction unbound, human plasma was found to be 0.004; the fraction unbound, rat plasma is 0.00181; the intrinsic clearance, human liver microsomes was 7.53 mL/min/kg. The compound also came in with an intrinsic clearance, rat liver microsomes of 103 mL/min/kg and an aqueous solubility of 5.95 µg/mL (≈ 15.8 µM).

With `Cc1nnc(NCc2cccnc2)c2ccccc12`, the MDR1-MDCK efflux ratio came to 6.54; the intrinsic clearance, human liver microsomes amounted to 5.21 mL/min/kg; the intrinsic clearance, rat liver microsomes worked out at 51.4 mL/min/kg; the aqueous solubility was determined as 29.9 µg/mL (≈ 120 µM).

Take `O=C(CSc1nnc(-c2cccs2)[nH]1)N1CCCCCC1`: the MDR1-MDCK efflux ratio stood at 2.11; the intrinsic clearance, human liver microsomes was 39.4 mL/min/kg; the intrinsic clearance, rat liver microsomes was found to be 370 mL/min/kg; the aqueous solubility was 27.6 µg/mL (≈ 85.6 µM).

On to `COc1ccc(CCn2c(C)c3c(=O)n(-c4nc5ccccc5s4)[nH]c3cc2=O)cc1`, for which the intrinsic clearance, human liver microsomes came to 53.7 mL/min/kg; the intrinsic clearance, rat liver microsomes amounted to 892 mL/min/kg; the aqueous solubility is 22.5 µg/mL (≈ 52.1 µM).

Compound `O=C(NCC(F)(F)F)c1ccncc1` displayed an aqueous solubility of 30.7 µg/mL (≈ 150 µM).

For the compound `c1ccc(-c2noc(C3CCNCC3)n2)nc1`, the intrinsic clearance, human liver microsomes was no more than 4.74 mL/min/kg and the intrinsic clearance, rat liver microsomes was no more than 10.7 mL/min/kg.

Regarding `CCN(C(C)=O)c1ccc(C)cc1C(=O)O`, the MDR1-MDCK efflux ratio came out at 0.864; the intrinsic clearance, human liver microsomes was no more than 4.74 mL/min/kg; the intrinsic clearance, rat liver microsomes was no more than 10.7 mL/min/kg; the aqueous solubility came to 34.9 µg/mL (≈ 158 µM).

With `O=C(CNc1cc(N2CCCC2=O)ccc1F)N1CCCCCC1`, the MDR1-MDCK efflux ratio amounted to 2.68; the intrinsic clearance, human liver microsomes stood at 23.8 mL/min/kg; the intrinsic clearance, rat liver microsomes was 393 mL/min/kg.

In the case of `CCOC(=O)N1CCc2cc(NC(=O)c3oc(C)cc3C)ccc21`, the intrinsic clearance, human liver microsomes is 11.5 mL/min/kg and the intrinsic clearance, rat liver microsomes was determined as 118 mL/min/kg.

Compound `Cc1nc(CS(C)(=O)=O)sc1C(=O)Nc1ccccc1` yielded an intrinsic clearance, human liver microsomes of no more than 4.74 mL/min/kg and an intrinsic clearance, rat liver microsomes of no more than 10.7 mL/min/kg.

Take `O[C@@H]1CO[C@H]2C[C@@H]1Nc1c(-c3ccccc3)cccc12`: the MDR1-MDCK efflux ratio amounted to 0.599; the intrinsic clearance, human liver microsomes was determined as 15 mL/min/kg; the intrinsic clearance, rat liver microsomes was found to be 367 mL/min/kg; the aqueous solubility was found to be 17 µg/mL (≈ 63.6 µM).

Consider `N#Cc1ccccc1OCc1csc(-c2ncccn2)n1`, for which the MDR1-MDCK efflux ratio was 0.59; the intrinsic clearance, human liver microsomes is 31.1 mL/min/kg; the intrinsic clearance, rat liver microsomes turned out to be 119 mL/min/kg; the aqueous solubility was found to be 12.7 µg/mL (≈ 43.1 µM).

Take `CC(C)(CO)NCCCCn1c2ccccc2c2ccccc21`: the MDR1-MDCK efflux ratio came out at 7.39; the intrinsic clearance, human liver microsomes was 54.2 mL/min/kg; the intrinsic clearance, rat liver microsomes turned out to be 163 mL/min/kg; the aqueous solubility stood at 31.8 µg/mL (≈ 102 µM).
